# Patent publication US20240190890A1, “MK2 INHIBITORS AND USES THEREOF” (Bristol-Myers Squibb Company, priority 2022, published 2024)
# Biological target: p38a activated, mitogen-activated protein kinase-activated protein kinase 2 (MAPKAP-K2 or MK2) enzyme (Homo sapiens (Human), UniProt P49137)
# Assay: MK2 Omnia continuous-read kinase assay for compound potency
# Format: biochemical
# Conditions: [MK-2]=0.4 nM, [ATP]=10 μM, [ST3-Sox]=10 μM; room temperature
# In short: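 p38a-activated MK2 (0.4 nM) with 10 μM ATP (apparent Km) and 10 μM S/T3-Sox peptide in Tris pH 7.5 buffer with MgCl2, EGTA and DTT. Fluorescence (ex360/em485) read continuously for 120 min at room temperature. IC50 from initial linear slopes; apparent kinact/KI from kobs of exponential progress-curve fits.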
# p38a activated, mitogen-activated protein kinase-activated protein kinase 2 (MAPKAP-K2 or MK2) enzyme, sequence (P49137 whole entry): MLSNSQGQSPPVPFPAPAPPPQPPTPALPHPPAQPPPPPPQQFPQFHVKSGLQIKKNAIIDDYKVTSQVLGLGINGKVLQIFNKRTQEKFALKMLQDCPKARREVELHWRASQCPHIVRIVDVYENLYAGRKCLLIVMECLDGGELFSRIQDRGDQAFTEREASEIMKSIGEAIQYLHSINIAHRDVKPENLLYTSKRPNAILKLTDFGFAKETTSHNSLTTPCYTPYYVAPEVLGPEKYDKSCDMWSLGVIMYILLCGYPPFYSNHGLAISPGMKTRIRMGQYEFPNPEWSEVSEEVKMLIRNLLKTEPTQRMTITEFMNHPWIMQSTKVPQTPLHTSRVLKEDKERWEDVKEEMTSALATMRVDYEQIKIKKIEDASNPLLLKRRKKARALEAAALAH
row,Compound,IC50 [µM]
1,"C=Cc1cncc(-c2ccc3c(ccc4sc5c(c43)NC[C@@H](C)NC5=O)n2)c1 [Example I-82, (R)-10-methyl-3-(5-vinylpyridin-3-yl)-9,10,11,12-tetrahydro-8H-[1,4]diazepino[5′,6′:4,5]thieno[3,2-f]quinolin-8-one]",0.021
2,"C/C=C/c1cc(-c2ccc3c(ccc4sc5c(c43)NC[C@@H](C)NC5=O)n2)ccn1 [Example I-113, (R,E)-10-methyl-3-(2-(prop-1-en-1-yl)pyridin-4-yl)-9,10,11,12-tetrahydro-8H-[1,4]diazepino[5′,6′:4,5]thieno[3,2-f]quinolin-8-one]",0.053
3,"C#Cc1nc(CO)cc(-c2ccc3c(ccc4sc5c(c43)NC[C@@H](C)NC5=O)n2)n1 [Example I-86, (R)-3-(2-ethynyl-6-(hydroxymethyl)pyrimidin-4-yl)-10-methyl-9,10,11,12-tetrahydro-8H-[1,4]diazepino[5′,6′:4,5]thieno[3,2-f]quinolin-8-one]",0.023
4,"C=C(C)c1ncc(F)c(-c2ccc3c(ccc4sc5c(c43)NC[C@@H](C)NC5=O)n2)n1 [Example I-47, (R)-3-(5-fluoro-2-(prop-1-en-2-yl)pyrimidin-4-yl)-10-methyl-9,10,11,12-tetrahydro-8H-[1,4]diazepino[5′,6′:4,5]thieno[3,2-f]quinolin-8-one]",0.429
5,"C#Cc1nc(-c2ccc3c(ccc4sc5c(c43)NC[C@@H](C)NC5=O)n2)cc(N2CCN(C)CC2)n1 [Example I-60, (R)-3-(2-ethynyl-6-(4-methylpiperazin-1-yl)pyrimidin-4-yl)-10-methyl-9,10,11,12-tetrahydro-8H-[1,4]diazepino[5′,6′:4,5]thieno[3,2-f]quinolin-8-one]",0.058
6,"(R)-10-methyl-3-(2-(4-methylpiperazin-1-yl)-6-vinylpyridin-4-yl)-9,10,11,12-tetrahydro-8H-[1,4]diazepino[5′,6′:4,5]thieno[3,2-f]quinolin- [Example I-96]",0.01
7,"C[C@@H]1CNc2c(sc3ccc4nc(-c5cc(Cl)ncn5)ccc4c23)C(=O)N1 [Example I-11, (R)-3-(6-chloropyrimidin-4-yl)-10-methyl-9,10,11,12-tetrahydro-8H-[1,4]diazepino[5′,6′:4,5]thieno[3,2-f]quinolin-8-one]",0.002
8,"C#Cc1cccc(-c2ccc3c(ccc4sc5c(c43)NC[C@@H](C)NC5=O)n2)n1 [Example I-56, (R)-3-(6-ethynylpyridin-2-yl)-10-methyl-9,10,11,12-tetrahydro-8H-[1,4]diazepino[5′,6′:4,5]thieno[3,2-f]quinolin-8-one]",0.194
9,"C=Cc1ncc(COC2CCOCC2)c(-c2ccc3c(ccc4sc5c(c43)NC[C@@H](C)NC5=O)n2)n1 [Example I-25, (R)-10-methyl-3-(5-(((tetrahydro-2H-pyran-4-yl)oxy)methyl)-2-vinylpyrimidin-4-yl)-9,10,11,12-tetrahydro-8H-[1,4]diazepino[5′,6′:4,5]thieno[3,2-f]quinolin-8-one]",0.043
10,"C=Cc1cc(-c2ccc3c(ccc4sc5c(c43)NC[C@@H](C)NC5=O)n2)ccn1 [Example I-55, (R)-10-methyl-3-(2-vinylpyridin-4-yl)-9,10,11,12-tetrahydro-8H-[1,4]diazepino[5′,6′:4,5]thieno[3,2-f]quinolin-8-one]",0.001
11,"C[C@@H]1CNc2c(sc3ccc4nc(-c5cc(Cl)nc(N6CCN(C)CC6)c5)ccc4c23)C(=O)N1 [Example I-94, (R)-3-(2-chloro-6-(4-methylpiperazin-1-yl)pyridin-4-yl)-10-methyl-9,10,11,12-tetrahydro-8H-[1,4]diazepino[5′,6′:4,5]thieno[3,2-f]quinolin-8-one]",0.043
12,"C[C@@H]1CNc2c(sc3ccc4nc(-c5cc(Cl)ncc5C(F)F)ccc4c23)C(=O)N1 [Example I-93, (R)-3-(2-chloro-5-(difluoromethyl)pyridin-4-yl)-10-methyl-9,10,11,12-tetrahydro-8H-[1,4]diazepino[5′,6′:4,5]thieno[3,2-f]quinolin-8-one]",0.238
13,"C=Cc1nc(CN2CCN(C)CC2)cc(-c2ccc3c(ccc4sc5c(c43)NC[C@@H](C)NC5=O)n2)n1 [Example I-88, (R)-10-methyl-3-(6-((4-methylpiperazin-1-yl)methyl)-2-vinylpyrimidin-4-yl)-9,10,11,12-tetrahydro-8H-[1,4]diazepino[5′,6′:4,5]thieno[3,2-f]quinolin-8-one]",0.015
14,"C[C@@H]1CNc2c(sc3ccc4nc(-c5cc(CO)nc(Cl)n5)ccc4c23)C(=O)N1 [Example I-84, (R)-3-(2-chloro-6-(hydroxymethyl)pyrimidin-4-yl)-10-methyl-9,10,11,12-tetrahydro-8H-[1,4]diazepino[5′,6′:4,5]thieno[3,2-f]quinolin-8-one]",0.039

# Results, then the compound that gave them:
row,IC50 [µM],Compound
1,0.023,"C[C@@H]1CNc2c(sc3ccc4nc(-c5cnc(Cl)[nH]5)ccc4c23)C(=O)N1 [Example I-151, (R)-3-(2-chloro-1H-imidazol-5-yl)-10-methyl-9,10,11,12-tetrahydro-8H-[1,4]diazepino[5′,6′:4,5]thieno[3,2-f]quinolin-8-one]"
2,0.021,"C=Cc1cc(-c2ccc3c(ccc4sc5c(c43)NCC(C)NC5=O)n2)cc(N2CCC3(CCC(=O)O3)CC2)n1 (racemic) [Example I-215, rac-(R)-8-(4-(10-methyl-8-oxo-9,10,11,12-tetrahydro-8H-[1,4]diazepino[5′,6′:4,5]thieno[3,2-f]quinolin-3-yl)-6-vinylpyridin-2-yl)-1-oxa-8-azaspiro[4.5]decan-2-one]"
3,0.107,"C=Cc1cc(-c2ccc3c(ccc4sc5c(c43)NC[C@@H](C)NC5=O)n2)cc(N2CCC(COC)CC2)n1 [Example I-240, (R)-3-(2-(4-(methoxymethyl)piperidin-1-yl)-6-vinylpyridin-4-yl)-10-methyl-9,10,11,12-tetrahydro-8H-[1,4]diazepino[5′,6′:4,5]thieno[3,2-f]quinolin-8-one]"
4,0.014,"C=Cc1ncc(-c2ccc3c(ccc4sc5c(c43)NC[C@@H](C)NC5=O)n2)[nH]1 [Example I-150, (R)-10-methyl-3-(2-vinyl-1H-imidazol-5-yl)-9,10,11,12-tetrahydro-8H-[1,4]diazepino[5′,6′:4,5]thieno[3,2-f]quinolin-8-one]"
5,0.044,"C=Cc1nn(C)cc1-c1ccc2c(ccc3sc4c(c32)NC[C@@H](C)NC4=O)n1 [Example I-230, (R)-10-methyl-3-(1-methyl-3-vinyl-1H-pyrazol-4-yl)-9,10,11,12-tetrahydro-8H-[1,4]diazepino[5′,6′:4,5]thieno[3,2-f]quinolin-8-one]"
6,0.031,"C=Cc1cc(-c2ccc3c(ccc4sc5c(c43)NC[C@@H](C)NC5=O)n2)cc(CN2CCC(F)(F)CC2)n1 [Example I-123, (R)-3-(2-((4,4-difluoropiperidin-1-yl)methyl)-6-vinylpyridin-4-yl)-10-methyl-9,10,11,12-tetrahydro-8H-[1,4]diazepino[5′,6′:4,5]thieno[3,2-f]quinolin-8-one]"
7,0.006,"C=C(CN1CCCC1)c1cc(-c2ccc3c(ccc4sc5c(c43)NC[C@@H](C)NC5=O)n2)ccn1 [Example I-116, (R)-10-methyl-3-(2-(3-(pyrrolidin-1-yl)prop-1-en-2-yl)pyridin-4-yl)-9,10,11,12-tetrahydro-8H-[1,4]diazepino[5′,6′:4,5]thieno[3,2-f]quinolin-8-one]"
8,0.059,"C=Cc1cc(-c2ccc3c(ccc4sc5c(c43)NC[C@@H](C)NC5=O)n2)c(Cl)cn1 [Example I-143, (R)-3-(5-chloro-2-vinylpyridin-4-yl)-10-methyl-9,10,11,12-tetrahydro-8H-[1,4]diazepino[5′,6′:4,5]thieno[3,2-f]quinolin-8-one]"
9,0.011,"C[C@@H]1CNc2c(sc3ccc4nc(-c5ccnc(/C=C/CN(C)C)c5)ccc4c23)C(=O)N1 [Example I-114, (R,E)-3-(2-(3-(dimethylamino)prop-1-en-1-yl)pyridin-4-yl)-10-methyl-9,10,11,12-tetrahydro-8H-[1,4]diazepino[5′,6′:4,5]thieno[3,2-f]quinolin-8-one]"
10,0.096,"C=C(CN1CCOCC1)c1cc(-c2ccc3c(ccc4sc5c(c43)NC[C@@H](C)NC5=O)n2)c(OC)nn1 [Example I-138, (R)-3-(3-methoxy-6-(3-morpholinoprop-1-en-2-yl)pyridazin-4-yl)-10-methyl-9,10,11,12-tetrahydro-8H-[1,4]diazepino[5′,6′:4,5]thieno[3,2-f]quinolin-8-one]"
11,0.002,"C=Cc1cc(-c2ccc3c(ccc4sc5c(c43)NC[C@@H](C)NC5=O)n2)c(C#N)cn1 [Example I-161, (R)-4-(10-methyl-8-oxo-9,10,11,12-tetrahydro-8H-[1,4]diazepino[5′,6′:4,5]thieno[3,2-f]quinolin-3-yl)-6-vinylnicotinonitrile]"
12,0.015,"C[C@@H]1CNc2c(sc3ccc4nc(-c5ccnc(C#CC(C)(C)N)c5)ccc4c23)C(=O)N1 [Example I-135, (R)-3-(2-(3-amino-3-methylbut-1-yn-1-yl)pyridin-4-yl)-10-methyl-9,10,11,12-tetrahydro-8H-[1,4]diazepino[5′,6′:4,5]thieno[3,2-f]quinolin-8-one]"
13,0.109,"C=Cc1cncc(-c2ccc3c(ccc4sc5c(c43)NC[C@@H](C)NC5=O)n2)n1 [Example I-163, (R)-10-methyl-3-(6-vinylpyrazin-2-yl)-9,10,11,12-tetrahydro-8H-[1,4]diazepino[5′,6′:4,5]thieno[3,2-f]quinolin-8-one]"
14,1,"C=Cc1nc(C)n(-c2ccc3c(ccc4sc5c(c43)NC[C@@H](C)NC5=O)n2)n1 [Example I-261, (R)-10-methyl-3-(5-methyl-3-vinyl-1H-1,2,4-triazol-1-yl)-9,10,11,12-tetrahydro-8H-[1,4]diazepino[5′,6′:4,5]thieno[3,2-f]quinolin-8-one]"
